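Step 1: Grow cells in 96-well plates. Step 2: Expose to compound for 48 hours at 5 concentrations. Step 3: Interpolate endpoints linearly; if unreached, use highest concentration. TGI denotes the concentration required for complete inhibition of growth.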
Assays:
Test in all cases: NCI tumour cell line growth inhibition, 48 h
RXF 393 renal = system: RXF 393 renal
RPMI-8226 leukemia = system: RPMI-8226 leukemia
MDA-N = system: MDA-N
HL-60(TB) leukemia = system: HL-60(TB) leukemia
K-562 leukemia = system: K-562 leukemia
SK-MEL-5 melanoma = system: SK-MEL-5 melanoma
SK-OV-3 ovarian = system: SK-OV-3 ovarian
HCT-15 colon = system: HCT-15 colon
SK-MEL-2 melanoma = system: SK-MEL-2 melanoma
SF-268 CNS = system: SF-268 CNS
HCT-116 colon = system: HCT-116 colon
HOP-92 NSCLC = system: HOP-92 NSCLC
SNB-19 CNS = system: SNB-19 CNS
SF-539 CNS = system: SF-539 CNS
NCI/ADR-RES ovarian = system: NCI/ADR-RES ovarian
BT-549 breast = system: BT-549 breast

Measured: TGI

N#Cc1nc(-c2ccccc2O)oc1N
> 100 µM: RXF 393 renal | RPMI-8226 leukemia | MDA-N | HL-60(TB) leukemia | K-562 leukemia | SK-MEL-5 melanoma | SK-OV-3 ovarian | HCT-15 colon | SK-MEL-2 melanoma | SF-268 CNS | HCT-116 colon | HOP-92 NSCLC | SNB-19 CNS

OC1=CN=C(C2CC2)Oc2ccccc21
> 100 µM: RXF 393 renal | RPMI-8226 leukemia | HL-60(TB) leukemia | K-562 leukemia | SK-MEL-5 melanoma | SK-OV-3 ovarian | HCT-15 colon | SK-MEL-2 melanoma | SF-268 CNS | SF-539 CNS | HCT-116 colon | HOP-92 NSCLC | SNB-19 CNS

CNC(=O)C1CCC(=O)N1CN(C(C)=O)c1ccccc1 (configuration not stated)
> 100 µM: RXF 393 renal | RPMI-8226 leukemia | MDA-N | K-562 leukemia | SK-MEL-5 melanoma | SK-OV-3 ovarian | HCT-15 colon | SK-MEL-2 melanoma | SF-268 CNS | SF-539 CNS | NCI/ADR-RES ovarian | HCT-116 colon | HOP-92 NSCLC | SNB-19 CNS

c1ccc2c(c1)ncn2CCn1ccnc1
> 100 µM: RXF 393 renal | RPMI-8226 leukemia | HL-60(TB) leukemia | K-562 leukemia | SK-MEL-5 melanoma | SK-OV-3 ovarian | HCT-15 colon | SK-MEL-2 melanoma | SF-268 CNS | SF-539 CNS | NCI/ADR-RES ovarian | BT-549 breast | SNB-19 CNS

Cc1ccccc1C(=O)NC(O)(C(F)(F)F)C(F)(F)F
> 100 µM: RXF 393 renal | RPMI-8226 leukemia | MDA-N | HL-60(TB) leukemia | K-562 leukemia | SK-MEL-5 melanoma | SK-OV-3 ovarian | HCT-15 colon | SK-MEL-2 melanoma | SF-268 CNS | SF-539 CNS | NCI/ADR-RES ovarian | HCT-116 colon | HOP-92 NSCLC | SNB-19 CNS

CC(C)[Si](Oc1cc2c3c(ccc2c(O)c1[C@@H](C)CO[Si](C)(C)C(C)(C)C)C(C)(C)CCC3)(C(C)C)C(C)C
43.4 µM: HL-60(TB) leukemia
59.8 µM: SK-MEL-5 melanoma
> 100 µM: RXF 393 renal | RPMI-8226 leukemia | MDA-N | K-562 leukemia | SK-OV-3 ovarian | HCT-15 colon | SK-MEL-2 melanoma | SF-268 CNS | SF-539 CNS | NCI/ADR-RES ovarian | HCT-116 colon | HOP-92 NSCLC | SNB-19 CNS

Cc1ccc(S(=O)(=O)C(C#N)c2nc3ccccc3nc2N2CCOCC2)cc1 (configuration not stated)
88.6 µM: SK-MEL-2 melanoma
71.1 µM: SF-268 CNS
95.6 µM: SNB-19 CNS
38.4 µM: HCT-116 colon
87.6 µM: RPMI-8226 leukemia
> 100 µM: SK-MEL-5 melanoma | SK-OV-3 ovarian | HCT-15 colon | SF-539 CNS

CN(C)C=NCc1ccc2c(c1)OCO2
> 100 µM: RXF 393 renal | RPMI-8226 leukemia | MDA-N | K-562 leukemia | SK-MEL-5 melanoma | SK-OV-3 ovarian | HCT-15 colon | SK-MEL-2 melanoma | SF-268 CNS | SF-539 CNS | NCI/ADR-RES ovarian | HCT-116 colon | HOP-92 NSCLC | SNB-19 CNS

C=CC(Br)(CBr)CCC(Br)C(C)(C)Br (configuration not stated)
11.9 µM: RPMI-8226 leukemia
31.8 µM: HCT-15 colon
29.7 µM: SK-MEL-2 melanoma
29.9 µM: SF-539 CNS | HOP-92 NSCLC
27.8 µM: SK-MEL-5 melanoma
66 µM: K-562 leukemia
28.3 µM: HCT-116 colon
32.3 µM: SF-268 CNS
28.8 µM: RXF 393 renal
35.7 µM: SK-OV-3 ovarian

Cc1no[n+]([O-])c1/C=N/NS(=O)(=O)c1ccccc1
> 100 µM: RXF 393 renal | RPMI-8226 leukemia | HL-60(TB) leukemia | K-562 leukemia | SK-MEL-5 melanoma | SK-OV-3 ovarian | HCT-15 colon | SK-MEL-2 melanoma | SF-268 CNS | SF-539 CNS | HCT-116 colon | HOP-92 NSCLC | SNB-19 CNS

O=C(Nc1ccccc1)c1cc2c(cc1Cl)SC(NNCCO)=NS2(=O)=O
> 100 µM: RXF 393 renal | RPMI-8226 leukemia | HL-60(TB) leukemia | K-562 leukemia | SK-MEL-5 melanoma | SK-OV-3 ovarian | HCT-15 colon | SK-MEL-2 melanoma | SF-268 CNS | SF-539 CNS | NCI/ADR-RES ovarian | BT-549 breast | HCT-116 colon | HOP-92 NSCLC | SNB-19 CNS

c1ccc2c(c1)ccc1nc3ccccn3c12
> 100 µM: RXF 393 renal | RPMI-8226 leukemia | HL-60(TB) leukemia | K-562 leukemia | SK-MEL-5 melanoma | SK-OV-3 ovarian | HCT-15 colon | SF-268 CNS | SF-539 CNS | NCI/ADR-RES ovarian | BT-549 breast | HOP-92 NSCLC | SNB-19 CNS

COC(=O)CCN1CCN(CCO)CC1C (configuration not stated)
> 10 µM: RXF 393 renal | RPMI-8226 leukemia | MDA-N | HL-60(TB) leukemia | K-562 leukemia | SK-MEL-5 melanoma | SK-OV-3 ovarian | HCT-15 colon | SK-MEL-2 melanoma | SF-268 CNS | SF-539 CNS | NCI/ADR-RES ovarian | HCT-116 colon | SNB-19 CNS

CC(=O)OCC1=C2C(OC(=O)C(C)C)CC3(COC(C)=O)OC3/C=C\C3(C)OC3C2OC1=O (configuration not stated)
> 100 µM: RXF 393 renal | RPMI-8226 leukemia | MDA-N | HL-60(TB) leukemia | K-562 leukemia | SK-MEL-5 melanoma | SK-OV-3 ovarian | HCT-15 colon | SK-MEL-2 melanoma | SF-268 CNS | SF-539 CNS | BT-549 breast | HCT-116 colon | SNB-19 CNS

CSC1=N/C(=C\c2ccccc2)C(=O)N1CN1CCOCC1
> 100 µM: RPMI-8226 leukemia | MDA-N | HL-60(TB) leukemia | K-562 leukemia | SK-MEL-5 melanoma | SK-OV-3 ovarian | HCT-15 colon | SK-MEL-2 melanoma | SF-268 CNS | NCI/ADR-RES ovarian | HCT-116 colon | HOP-92 NSCLC | SNB-19 CNS

CCOC(=O)c1ncn2c1[nH]c(=O)c1ccccc12
> 100 µM: RXF 393 renal | RPMI-8226 leukemia | K-562 leukemia | SK-MEL-5 melanoma | HCT-15 colon | SK-MEL-2 melanoma | SF-268 CNS | SF-539 CNS | HCT-116 colon | SNB-19 CNS

CC(=O)C(CN(C)Cc1ccccc1)C(c1ccccc1)c1c(O)c2ccccc2oc1=O (configuration not stated)
> 100 µM: RXF 393 renal | RPMI-8226 leukemia | HL-60(TB) leukemia | K-562 leukemia | SK-MEL-5 melanoma | SK-OV-3 ovarian | HCT-15 colon | SK-MEL-2 melanoma | SF-268 CNS | SF-539 CNS | HCT-116 colon | HOP-92 NSCLC
93.2 µM: SNB-19 CNS
